Counter-ions that a name gives are not always drawn.
Assays:
[1] = target: sigma 1 (σ-1) site (Homo sapiens, UniProt Q99720); conditions: cited from earlier work
[2] = target: sigma (σ-2) site (Homo sapiens, UniProt Q5BJF2); conditions: cited from earlier work
[3] = target: σ1-receptor (Cavia porcellus, UniProt Q60492); test: σ1-receptor binding assay, [3H](+)-pentazocine, brain membranes; conditions: [3H](+)-pentazocine 0.5 nM, guinea pig brain membranes; for % Binding σ1 10^−7M: compound 10^−7M; for % Binding σ1 10^−8M: compound 10^−8M
Protocol: Brain membrane preparation and binding assays for the σ1-receptor were performed as described (DeHaven-Hudkins et al., 1992) with some modifications. In brief, guinea pig brains were homogenized in 10 vols. (w/v) of Tris-HCl 50 mM 0.32 M sucrose, pH 7.4, with a Kinematica Polytron PT 3000 at 15000 r.p.m. for 30 s. The homogenate was centrifuged at 1000 g for 10 min at 4° C. and the supernatants collected and centrifuged again at 48000 g for 15 min at 4° C. The pellet was resuspended in 10 volumes of Tris-HCl buffer (50 mM, pH 7.4), incubated at 37° C. for 30 min, and centrifuged at 48000 g for 20 min at 4° C. Following this, the pellet was resuspended in fresh Tris-HCl buffer (50 mM, pH 7.4) and stored on ice until use.
Each assay tube contained 10 μL of [^3H](+)-pentazocine (final concentration of 0.5 nM), 900 μL of the tissue suspension to a final assay volume of 1 mL and a final tissue concentration of approximately 30 mg tissue net weight/mL. […] All tubes were incubated at 37° C. for 150 min before termination of the reaction by rapid filtration over Schleicher & Schuell GF 3362 glass fibre filters [previously soaked in a solution of 0.5% polyethylenimine for at least 1 h]. Filters were then washed with four times with 4 mL of cold Tris-HCl buffer (50 mM, pH 7.4). Following addition of scintillation cocktail, the samples were allowed to equilibrate overnight. The amount of bound radioactivity was determined by liquid scintillation spectrometry using a Wallac Winspectral 1414 liquid scintillation counter.

[4] = cited from earlier work

σ1-receptor, sequence (Q60492 whole entry): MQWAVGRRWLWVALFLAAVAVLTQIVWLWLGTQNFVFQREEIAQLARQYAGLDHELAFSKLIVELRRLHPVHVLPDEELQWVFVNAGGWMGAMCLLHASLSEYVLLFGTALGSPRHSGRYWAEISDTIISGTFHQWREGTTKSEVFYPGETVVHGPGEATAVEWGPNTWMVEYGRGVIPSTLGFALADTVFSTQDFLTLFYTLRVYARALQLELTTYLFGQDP
sigma (σ-2) site, sequence (Q5BJF2 whole entry): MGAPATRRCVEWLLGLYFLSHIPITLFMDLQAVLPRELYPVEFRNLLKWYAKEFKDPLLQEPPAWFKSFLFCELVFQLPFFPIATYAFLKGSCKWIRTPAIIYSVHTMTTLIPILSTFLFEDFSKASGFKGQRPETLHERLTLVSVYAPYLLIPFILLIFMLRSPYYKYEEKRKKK
sigma 1 (σ-1) site, sequence (Q99720 whole entry): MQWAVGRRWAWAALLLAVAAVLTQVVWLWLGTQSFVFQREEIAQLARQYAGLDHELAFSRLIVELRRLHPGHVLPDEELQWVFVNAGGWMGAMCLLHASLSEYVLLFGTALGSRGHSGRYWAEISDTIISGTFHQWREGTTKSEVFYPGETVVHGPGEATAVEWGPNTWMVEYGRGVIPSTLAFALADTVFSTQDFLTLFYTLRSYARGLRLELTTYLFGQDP

SKF 10047
affinity for the sigma 1 (σ-1) site [1]: nanomolar affinity
affinity for the sigma (σ-2) site [2]: micromolar affinity

Clc1ccc(-n2ccc(OCCOCCN3CCCCC3)n2)cc1Cl [Example 6, 1-(2-(2-(1-(3,4-dichlorophenyl)-1H-pyrazol-3-yloxy)ethoxy)ethyl)piperidine]
% Binding σ1 10^−7M [3]: 82.8%
% Binding σ1 10^−8M [3]: 23.7%

CN1CCN(CC(O)COc2ccn(-c3ccc(Cl)c(Cl)c3)n2)CC1.O=C(O)C(=O)O (stereo not shown)
melting point: 189 to 192 °C

O=C(O)C(=O)O.OC(COc1ccn(-c2ccc(Cl)c(Cl)c2)n1)CN1CCCC1 (stereo not shown) [Example 3, 1-(1-(3,4-dichlorophenyl)-1H-pyrazol-3-yloxy)-3-(pyrrolidin-1-yl)propan-2-ol oxalate]
% Binding σ1 10^−7M [3]: 55.9%
% Binding σ1 10^−8M [3]: 32.6%

OC(COc1ccn(-c2ccc(Cl)c(Cl)c2)n1)CN1CCOCC1 (stereo not shown) [Example 1, 1-(1-(3,4-dichlorophenyl)-1H-pyrazol-3-yloxy)-3-morpholinopropan-2-ol oxalate]
% Binding σ1 10^−7M [3]: 70.3%
% Binding σ1 10^−8M [3]: 22.2%

Clc1ccc(-n2ccc(OCCOCCN3CCOCC3)n2)cc1Cl.O=C(O)C(=O)O [Example 7, 4-(2-(2-(1-(3,4-dichlorophenyl)-1H-pyrazol-3-yloxy)ethoxy)ethyl)morpholine oxalate]
% Binding σ1 10^−7M [3]: 61.6%
% Binding σ1 10^−8M [3]: 25.8%
melting point: 154 to 156 °C

O=C(O)C(=O)O.OC(COc1ccn(-c2ccc(Cl)c(Cl)c2)n1)CN1CCCCC1 (stereo not shown) [Example 2, 1-(1-(3,4-dichlorophenyl)-1H-pyrazol-3-yloxy)-3-(piperidin-1-yl)propan-2-ol oxalate]
% Binding σ1 10^−7M [3]: 72.2%
% Binding σ1 10^−8M [3]: 4.2%
melting point: 116 to 119 °C

C[C@@H]1CN(CCCn2c3ccccc3c3ccccc32)C[C@H](C)N1 [rimcazole]
clinical effects in the treatment of psychosis [4]: shows effects in the treatment of psychosis
